# Measured values: US11548870B2, “Compounds useful as inhibitors of helios protein” (Bristol-Myers Squibb Company, priority 2019, dated 2023)
# Like-named read-outs stand apart in the source and are kept apart here.
# How the values were obtained:
# [1] = target: T1, Helios (Homo sapiens, UniProt Q96SW2+Q9UKS7); assay: Helios Cellular Degradation Assay (flow cytometry, Helios-PE antibody staining, 72 h); assay type: cell-based; details: for Dmax: Jurkat, read-out: Helios Dmax
# T1 construct: fluorescently labelled antibodies against Helios and Ikaros; endogenous in cells; host or cells: Jurkat cells
# In short: (§1)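 Jurkat cells (80,000/well, RPMI+10% FBS) were exposed to compound for 72 h at 37 °C, then fixed, permeabilized and co-stained for 1 h with Ikaros-Alexa488 and Helios-PE antibodies. Intracellular protein levels were read by flow cytometry.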
# [2] = target: T2, Ikaros (Homo sapiens, UniProt Q13422); assay: Helios Cellular Degradation Assay, Ikaros readout (flow cytometry, Ikaros-Alexa488 antibody staining, 72 h); assay type: cell-based; details: for Dmax: Jurkat, read-out: Ikaros Dmax
# T2 construct: fluorescently labelled antibodies against Helios and Ikaros; endogenous in cells; host or cells: Jurkat cells
# In short: as §1
# [3] = Jurkat cells, 72 h incubation, flow cytometry
# T1 sequence (Q9UKS7 whole entry): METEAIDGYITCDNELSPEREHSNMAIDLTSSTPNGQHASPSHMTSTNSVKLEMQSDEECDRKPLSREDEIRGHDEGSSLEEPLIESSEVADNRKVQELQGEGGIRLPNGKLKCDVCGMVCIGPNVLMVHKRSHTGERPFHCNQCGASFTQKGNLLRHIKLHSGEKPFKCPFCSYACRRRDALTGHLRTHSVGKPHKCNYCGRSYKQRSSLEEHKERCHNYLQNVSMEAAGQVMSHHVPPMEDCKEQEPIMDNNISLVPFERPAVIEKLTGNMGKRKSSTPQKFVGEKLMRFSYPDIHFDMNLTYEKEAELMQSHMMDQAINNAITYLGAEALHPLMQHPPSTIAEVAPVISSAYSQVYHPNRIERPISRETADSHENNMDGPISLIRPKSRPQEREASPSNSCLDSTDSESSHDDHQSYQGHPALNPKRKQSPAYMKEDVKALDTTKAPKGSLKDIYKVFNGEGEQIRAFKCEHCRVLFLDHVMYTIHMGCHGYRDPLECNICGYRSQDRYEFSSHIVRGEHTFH
# T1 sequence (Q96SW2 whole entry): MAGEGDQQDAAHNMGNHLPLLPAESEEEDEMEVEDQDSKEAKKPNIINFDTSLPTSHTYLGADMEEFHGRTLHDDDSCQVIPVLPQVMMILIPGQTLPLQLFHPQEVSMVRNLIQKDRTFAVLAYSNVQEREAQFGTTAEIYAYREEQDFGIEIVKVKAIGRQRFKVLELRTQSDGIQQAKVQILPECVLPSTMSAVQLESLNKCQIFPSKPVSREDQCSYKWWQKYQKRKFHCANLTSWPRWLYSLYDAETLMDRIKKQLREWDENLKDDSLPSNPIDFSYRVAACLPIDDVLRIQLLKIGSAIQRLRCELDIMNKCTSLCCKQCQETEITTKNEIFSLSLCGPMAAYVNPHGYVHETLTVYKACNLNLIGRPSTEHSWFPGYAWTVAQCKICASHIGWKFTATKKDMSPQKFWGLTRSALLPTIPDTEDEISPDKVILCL
# T1 sequence (Q16531 whole entry partner): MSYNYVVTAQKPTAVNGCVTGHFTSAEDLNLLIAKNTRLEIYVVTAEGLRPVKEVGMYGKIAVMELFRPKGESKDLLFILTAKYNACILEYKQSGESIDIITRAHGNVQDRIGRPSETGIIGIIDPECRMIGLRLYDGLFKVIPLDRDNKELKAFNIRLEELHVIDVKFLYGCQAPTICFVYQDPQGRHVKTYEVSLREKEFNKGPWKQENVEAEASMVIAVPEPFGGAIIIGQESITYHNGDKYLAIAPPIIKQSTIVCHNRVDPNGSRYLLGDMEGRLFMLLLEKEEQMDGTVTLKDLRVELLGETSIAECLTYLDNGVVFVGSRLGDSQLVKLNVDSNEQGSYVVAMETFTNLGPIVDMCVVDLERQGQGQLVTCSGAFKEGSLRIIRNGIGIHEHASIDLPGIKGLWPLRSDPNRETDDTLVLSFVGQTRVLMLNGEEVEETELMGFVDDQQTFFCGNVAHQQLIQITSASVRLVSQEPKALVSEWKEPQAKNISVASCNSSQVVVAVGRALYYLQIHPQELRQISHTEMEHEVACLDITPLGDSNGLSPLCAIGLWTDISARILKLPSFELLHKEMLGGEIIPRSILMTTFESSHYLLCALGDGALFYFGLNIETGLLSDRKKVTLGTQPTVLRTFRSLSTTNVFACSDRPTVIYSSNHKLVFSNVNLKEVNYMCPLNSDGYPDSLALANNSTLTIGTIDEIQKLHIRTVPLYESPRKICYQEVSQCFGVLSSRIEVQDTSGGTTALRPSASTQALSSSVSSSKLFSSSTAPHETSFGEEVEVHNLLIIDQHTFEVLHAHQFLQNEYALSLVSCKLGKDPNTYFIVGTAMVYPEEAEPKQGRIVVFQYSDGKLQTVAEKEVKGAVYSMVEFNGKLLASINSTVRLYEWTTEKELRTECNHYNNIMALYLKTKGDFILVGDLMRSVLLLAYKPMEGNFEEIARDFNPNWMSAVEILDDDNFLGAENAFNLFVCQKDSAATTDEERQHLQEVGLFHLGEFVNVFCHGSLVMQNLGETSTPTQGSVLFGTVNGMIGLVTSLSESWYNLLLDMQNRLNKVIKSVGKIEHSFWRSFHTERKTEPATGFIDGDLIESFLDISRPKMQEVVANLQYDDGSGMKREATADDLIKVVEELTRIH
# T2 sequence (Q96SW2 whole entry partner): as the sequence (Q96SW2 whole entry) above
# T2 sequence (Q16531 whole entry partner): as the sequence (Q16531 whole entry partner) above
# T2 sequence (Q13422 whole entry): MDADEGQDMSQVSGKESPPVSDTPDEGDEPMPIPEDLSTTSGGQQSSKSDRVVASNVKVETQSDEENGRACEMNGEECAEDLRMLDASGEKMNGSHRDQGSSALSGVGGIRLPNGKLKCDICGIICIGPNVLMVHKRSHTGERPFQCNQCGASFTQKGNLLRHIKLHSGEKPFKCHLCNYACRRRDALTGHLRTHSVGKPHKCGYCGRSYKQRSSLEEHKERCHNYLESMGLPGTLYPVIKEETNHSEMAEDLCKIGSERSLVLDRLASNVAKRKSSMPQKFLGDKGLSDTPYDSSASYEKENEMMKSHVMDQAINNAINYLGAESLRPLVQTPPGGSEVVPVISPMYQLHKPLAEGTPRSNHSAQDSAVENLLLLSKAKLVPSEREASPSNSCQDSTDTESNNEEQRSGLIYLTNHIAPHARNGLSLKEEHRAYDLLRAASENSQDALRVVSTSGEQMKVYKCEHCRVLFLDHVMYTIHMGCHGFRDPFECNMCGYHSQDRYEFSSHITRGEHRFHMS
SMILES,"DC50 [1, 3]","Dmax [1, 3]","DC50 [2, 3]","Dmax [2, 3]",Dmax [1],Dmax [2]
"O=C1CCC(N2Cc3cc(-c4cc(CN5CC[C@@H](c6ccccc6)C5)ccn4)ccc3C2=O)C(=O)N1 (stereo partly drawn) [Example 139, 3-(1-oxo-5-(4-(((S)-3-phenylpyrrolidin-1-yl)methyl)pyridin-2-yl)isoindolin-2-yl)piperidine-2,6-dione]",25 nM,91%,> 10000 nM,3%,,
"CNCc1ccnc(-c2ccc3c(c2)CN(C2CCC(=O)NC2=O)C3=O)c1 (centres unmarked) [Example 145, 3-(5-{4-[(Methylamino)methyl]pyridin-2-yl}-1-oxo-2,3-dihydro-1H-isoindol-2-yl) piperidine-2,6-dione]",67 nM,93%,> 10000 nM,11%,,
"CN(Cc1ccc(F)cc1)Cc1ccnc(-c2ccc3c(c2)CN(C2CCC(=O)NC2=O)C3=O)c1 (centres unmarked) [Example 147, 3-(5-(4-(((4-fluorobenzyl)(methyl)amino)methyl)pyridin-2-yl)-1-oxoisoindolin-2-yl)piperidine-2,6-dione]",226 nM,74%,> 10000 nM,4%,,
"CN(Cc1cccc(C(F)(F)F)c1)Cc1ccnc(-c2ccc3c(c2)CN(C2CCC(=O)NC2=O)C3=O)c1 (centres unmarked) [Example 148, 3-(5-(4-((methyl(3-(trifluoromethyl)benzyl)amino)methyl)pyridin-2-yl)-1-oxoisoindolin-2-yl)piperidine-2,6-dione]",238 nM,,> 10000 nM,,75%,9%
"CN(Cc1ccc(C(F)(F)F)cc1)Cc1ccnc(-c2ccc3c(c2)CN(C2CCC(=O)NC2=O)C3=O)c1 (centres unmarked) [Example 149, 3-(5-(4-((methyl(4-(trifluoromethyl)benzyl)amino)methyl)pyridin-2-yl)-1-oxoisoindolin-2-yl)piperidine-2,6-dione]",> 10000 nM,17%,> 10000 nM,6%,,
"CN(Cc1ccc(C#N)cc1)Cc1ccnc(-c2ccc3c(c2)CN(C2CCC(=O)NC2=O)C3=O)c1 (centres unmarked) [Example 150, 4-((((2-(2-(2,6-dioxopiperidin-3-yl)-1-oxoisoindolin-5-yl)pyridin-4-yl)methyl)(methyl)amino)methyl)benzonitrile]",> 10000 nM,45%,> 10000 nM,17%,,
"CN(Cc1ccnc(-c2ccc3c(c2)CN(C2CCC(=O)NC2=O)C3=O)c1)Cc1ccc(F)c(F)c1 (centres unmarked) [Example 152, 3-(5-(4-(((3,4-difluorobenzyl)(methyl)amino)methyl)pyridin-2-yl)-1-oxoisoindolin-2-yl)piperidine-2,6-dione]",850 nM,55%,> 10000 nM,7%,,
"COC(=O)c1ccc(CN(C)Cc2ccnc(-c3ccc4c(c3)CN(C3CCC(=O)NC3=O)C4=O)c2)cc1 (centres unmarked) [Example 153, methyl 4-((((2-(2-(2,6-dioxopiperidin-3-yl)-1-oxoisoindolin-5-yl)pyridin-4-yl)methyl)(methyl)amino)methyl)benzoate]",4710 nM,58%,> 10000 nM,7%,,
"CN(Cc1ccc(Cl)cc1)Cc1ccnc(-c2ccc3c(c2)CN(C2CCC(=O)NC2=O)C3=O)c1 (centres unmarked) [Example 154, 3-(5-(4-(((4-chlorobenzyl)(methyl)amino)methyl)pyridin-2-yl)-1-oxoisoindolin-2-yl)piperidine-2,6-dione]",3260 nM,54%,> 10000 nM,6%,,
"CN(Cc1ccnc(-c2ccc3c(c2)CN(C2CCC(=O)NC2=O)C3=O)c1)Cc1cccc2cccnc12 (centres unmarked) [Example 155, 3-(5-(4-((methyl(quinolin-8-ylmethyl)amino)methyl)pyridin-2-yl)-1-oxoisoindolin-2-yl)piperidine-2,6-dione]",1580 nM,57%,> 10000 nM,0%,,
"CN(Cc1cccc(OC(F)(F)F)c1)Cc1ccnc(-c2ccc3c(c2)CN(C2CCC(=O)NC2=O)C3=O)c1 (centres unmarked) [Example 156, 3-(5-(4-((methyl(3-(trifluoromethoxy)benzyl)amino)methyl)pyridin-2-yl)-1-oxoisoindolin-2-yl)piperidine-2,6-dione]",1830 nM,56%,> 10000 nM,11%,,
"CN(Cc1ccc(S(C)(=O)=O)cc1)Cc1ccnc(-c2ccc3c(c2)CN(C2CCC(=O)NC2=O)C3=O)c1 (centres unmarked) [Example 157, 3-(5-(4-((methyl(4-(methylsulfonyl)benzyl)amino)methyl)pyridin-2-yl)-1-oxoisoindolin-2-yl)piperidine-2,6-dione]",> 10000 nM,38%,> 10000 nM,8%,,
"CN(Cc1cccnc1)Cc1ccnc(-c2ccc3c(c2)CN(C2CCC(=O)NC2=O)C3=O)c1 (centres unmarked) [Example 159, 3-(5-(4-((methyl(pyridin-3-ylmethyl)amino)methyl)pyridin-2-yl)-1-oxoisoindolin-2-yl)piperidine-2,6-dione]",136 nM,76%,> 10000 nM,25%,,
"O=C1CCC(N2Cc3cc(-c4cc(CN(Cc5ccccc5)Cc5ccccc5)ccn4)ccc3C2=O)C(=O)N1 (centres unmarked) [Example 163, 3-(5-{4-[(Dibenzylamino)methyl]pyridin-2-yl}-1-oxo-2,3-dihydro-1H-isoindol-2-yl)piperidine-2,6-dione]",1020 nM,56%,> 10000 nM,31%,,

# Second part, led by results:
"DC50 [1, 3]","Dmax [1, 3]","DC50 [2, 3]","Dmax [2, 3]",SMILES,Dmax [1],Dmax [2]
37 nM,82%,> 10000 nM,18%,"O=C1CCC(N2Cc3cc(-c4cc(CN5CC[C@H](c6ccccc6)C5)ccn4)ccc3C2=O)C(=O)N1 (stereo partly drawn) [Example 138, 3-(1-oxo-5-(4-(((R)-3-phenylpyrrolidin-1-yl)methyl)pyridin-2-yl)isoindolin-2-yl)piperidine-2,6-dione]",,
12 nM,76%,> 10000 nM,22%,"CN[C@@H]1CCCC[C@H]1N(C)Cc1ccnc(-c2ccc3c(c2)CN(C2CCC(=O)NC2=O)C3=O)c1 (stereo partly drawn) [Example 140, 3-(5-(4-((methyl((1R,2R)-2-(methylamino)cyclohexyl)amino)methyl)pyridin-2-yl)-1-oxoisoindolin-2-yl)piperidine-2,6-dione]",,
46 nM,82%,> 10000 nM,20%,"O=C1CCC(N2Cc3cc(-c4cc(CN5CCC(c6ccccc6)CC5)ccn4)ccc3C2=O)C(=O)N1 (centres unmarked) [Example 141, 3-(1-oxo-5-(4-((4-phenylpiperidin-1-yl)methyl)pyridin-2-yl)isoindolin-2-yl)piperidine-2,6-dione]",,
88 nM,83%,897 nM,52%,"CN(Cc1ccnc(-c2ccc3c(c2)CN(C2CCC(=O)NC2=O)C3=O)c1)C(C)(C)c1ccccc1 (centres unmarked) [Example 142, 3-(5-(4-((methyl(2-phenylpropan-2-yl)amino)methyl)pyridin-2-yl)-1-oxoisoindolin-2-yl)piperidine-2,6-dione]",,
40 nM,62%,> 10000 nM,1%,"O=C1CCC(N2Cc3cc(-c4cc(CN5CCCC(c6ccccc6)C5)ccn4)ccc3C2=O)C(=O)N1 (centres unmarked) [Example 143, 3-(1-oxo-5-(4-((3-phenylpiperidin-1-yl)methyl)pyridin-2-yl)isoindolin-2-yl)piperidine-2,6-dione]",,
2020 nM,57%,> 10000 nM,11%,"NCc1ccnc(-c2ccc3c(c2)CN(C2CCC(=O)NC2=O)C3=O)c1 (centres unmarked) [Example 144, 3-{5-[4-(Aminomethyl)pyridin-2-yl]-1-oxo-2,3-dihydro-1H-isoindol-2-yl}piperidine-2,6-dione]",,
> 10000 nM,3%,> 10000 nM,5%,"CN(Cc1ccc(S(=O)(=O)N(C)C)cc1)Cc1ccnc(-c2ccc3c(c2)CN(C2CCC(=O)NC2=O)C3=O)c1 (centres unmarked) [Example 146, 4-{[({2-[2-(2,6-Dioxopiperidin-3-yl)-1-oxo-2,3-dihydro-1H-isoindol-5-yl]pyridin-4-yl}methyl)(methyl)amino]methyl}-N,N-dimethylbenzene-1-sulfonamide]",,
> 10000 nM,23%,> 10000 nM,1%,"CN(Cc1ccc([N+](=O)[O-])cc1)Cc1ccnc(-c2ccc3c(c2)CN(C2CCC(=O)NC2=O)C3=O)c1 (centres unmarked) [Example 151, 3-(5-(4-((methyl(4-nitrobenzyl)amino)methyl)pyridin-2-yl)-1-oxoisoindolin-2-yl)piperidine-2,6-dione]",,
256 nM,74%,> 10000 nM,3%,"COc1cccc(CN(C)Cc2ccnc(-c3ccc4c(c3)CN(C3CCC(=O)NC3=O)C4=O)c2)c1 (centres unmarked) [Example 158, 3-(5-(4-(((3-methoxybenzyl)(methyl)amino)methyl)pyridin-2-yl)-1-oxoisoindolin-2-yl)piperidine-2,6-dione]",,
359 nM,70%,> 10000 nM,30%,"CN(Cc1ccncc1)Cc1ccnc(-c2ccc3c(c2)CN(C2CCC(=O)NC2=O)C3=O)c1 (centres unmarked) [Example 160, 3-(5-(4-((methyl(pyridin-4-ylmethyl)amino)methyl)pyridin-2-yl)-1-oxoisoindolin-2-yl) piperidine-2,6-dione]",,
67 nM,83%,> 10000 nM,17%,"Cc1ccc(CN(C)Cc2ccnc(-c3ccc4c(c3)CN(C3CCC(=O)NC3=O)C4=O)c2)cc1 (centres unmarked) [Example 161, 3-(5-(4-((methyl(4-methylbenzyl)amino)methyl)pyridin-2-yl)-1-oxoisoindolin-2-yl)piperidine-2,6-dione]",,
1090 nM,63%,> 10000 nM,2%,"CN(Cc1ccnc(-c2ccc3c(c2)CN(C2CCC(=O)NC2=O)C3=O)c1)Cc1ccc2ccccc2c1 (centres unmarked) [Example 162, 3-(5-(4-((methyl(naphthalen-2-ylmethyl)amino)methyl)pyridin-2-yl)-1-oxoisoindolin-2-yl)piperidine-2,6-dione]",,
